Measured values reported in paper PMC12754617, “Ruthenium-enhanced curcumin derivatives target tumor growth and cancer-related inflammation in head and neck cancer models” (Frontiers in Oncology, 2025).
Read-outs that look alike come from different tables or passages of the source.

Assays:
[1] = tested on: NF-κB in THP1-Blue NF-κB cells; assay: NF-κB activity assay (SEAP reporter, LPS-induced); format: cell-based; conditions: LPS 10 ng/mL
Experimental: THP1-Blue NF-κB cells, NF-κB secreted embryonic alkaline phosphatase (SEAP) reporter monocytes (InvivoGen, USA), were assayed after 20–24 h of incubation following the manufacturer’s protocol. Briefly, cells were seeded at 1 × 10^6 cells/mL in RPMI medium in 96-well plates (180 μL) and treated with complex 3 or 4, Lipopolysaccharide (LPS) (10 ng/mL; […] The next day, NF-κB activation was assessed via the secretion of SEAP. Supernatants (20 μL) were transferred to 96-well plates, and 180 μL of Quanti-Blue was added. Plates were incubated for 2 h at 37°C, and absorbance was measured at 600 nm using an […] 200 PRO microplate reader (TECAN, Switzerland).

SCC-9 = assay: MTT viability assay; format: cell-based, human
Experimental: (§1) A colorimetric 3-(4,5-dimethylthiazolyl)-2,5-diphenyltetrazolium bromide (MTT) cell metabolic activity assay was used to assess the cytotoxicity of complexes 3 and 4. The cells (described above) were cultured under standard conditions. Cells were seeded in 96-well plates at a density of 10,000 cells per well (200 μL) and allowed to grow for 24 h. The medium was then replaced with medium containing complex 3 or 4 at a concentration ranging from 0 to 200 μM, and the cells were incubated for an additional 24, 48, and 72 h. Subsequently, the medium was replaced with MTT solution, consisting of yellow tetrazolium dye 3-(4,5-dimethylthiazol-2-yl)-2,5-diphenyltetrazolium bromide (Sigma-Aldrich, Merck, Germany), and incubated for 2 h at 37°C. The dye was then removed, and the resulting purple formazan formed in viable cells was dissolved in DMSO, followed by shaking for 30 s. Absorbance was measured at 570 nm using an […] 200 PRO microplate reader (TECAN, Männedorf, Switzerland). All experiments were performed in quadruplicate and repeated three times.
(§2) The cell inhibitory concentration (IC) was calculated using the equation IC = (Acomplex3/complex4 well/mean Acontrol wells) × 100%. The half-maximal inhibitory concentration (IC50) was determined from dose–response curves using GraphPad Prism 10 (GraphPad Software Inc., La Jolla, CA, USA). The selectivity index toward cancer cells was calculated as a ratio of the average IC50 value for HGF to the IC50 value for the corresponding cancer cell line.

Detroit 562 = assay: MTT viability assay; format: cell-based, human
Experimental: as §1, §2

Hep-2 = assay: MTT viability assay; format: cell-based, human
Experimental: as §1, §2

[2] = UV–Vis spectroscopy in PBS (solubility); format: physicochemical; conditions: PBS (PBS:DMSO 99:1), UV–Vis linearity of absorbance
Experimental: All chemicals were sourced from commercial suppliers and utilized directly without any additional purification steps. Nuclear Magnetic Resonance (NMR) spectra were acquired on a 400-MHz spectrometer (JEOL, Tokyo, Japan) at 25°C. The chemical shifts (δ) are given in parts per million (ppm), with coupling constants (J) measured in hertz (Hz). The ^1H and ^13C NMR shifts are referenced to TMS, and solvent signals from Dimethyl Sulfoxide (DMSO)-d6 (2.50 ppm for ^1H and 39.52 ppm for ^13C) were used as references. Data analysis was performed using MestReNova software (version 14.2.1, Mestrelab Research S.L., Santiago de Compostela, SPAIN). Full assignment was performed using a combination of ^1H, ^13C, correlation spectroscopy (COSY), heteronuclear single quantum coherence (HSQC), and heteronuclear multiple bond correlation (HMBC) experiments. Mass spectrometry was conducted in positive ion mode using electrospray ionization (ESI^+) with a high-resolution hybrid Ion Trap-Orbitrap mass spectrometer (LTQ Orbitrap Velos, Thermo Scientific, Waltham, Massachusetts, USA), Supplementary Figures S21, S22. Detailed NMR spectra for all synthesized products are available in Supplementary Figures S12-S20. […] Characteristic absorption maxima were identified, and their dependence on concentration was evaluated.

THP1-Blue NF-κB cells = assay: MTT viability assay of THP1-Blue NF-κB cells; format: cell-based; conditions: concentrations of the NF-κB activity assay, overnight
Experimental: A total of 20 μL of sterile filtered MTT (Sigma-Aldrich, Merck, Germany) solution (5 mg/mL in PBS) was added to the remaining overnight culture of THP1-Blue NF-κB cells from the above NF-κB activity assay in 96-well plates, which were incubated at 37°C (see above). After 2 h of incubation at 37°C, the supernatant was removed, and the purple formazan product generated in the cells was dissolved by the addition of 100 μL of DMSO to each well. The plates were then gently shaken for 30 s at room temperature to dissolve the precipitates. The absorbance was measured at 570 nm using an […] 200 PRO microplate reader (TECAN, Switzerland) ([43]).

[3] = SCC-9, 24 h, read-out: IC50 24h
[4] = SCC-9, 48 h, read-out: IC50 48h
[5] = SCC-9, 72 h, read-out: IC50 72h
[6] = Detroit 562, 24 h, read-out: IC50 24h
[7] = Detroit 562, 48 h, read-out: IC50 48h
[8] = Detroit 562, 72 h, read-out: IC50 72h
[9] = Hep-2, 24 h, read-out: IC50 24h
[10] = Hep-2, 48 h, read-out: IC50 48h
[11] = Hep-2, 72 h, read-out: IC50 72h

| Structure (SMILES) | Reduction of LPS-induced NF-κB activation ([1]; 8 μM) | IC50 (SCC-9; [3]) [µM] | IC50 (SCC-9; [4]) [µM] | IC50 (SCC-9; [5]) [µM] | IC50 (Detroit 562; [6]) [µM] | IC50 (Detroit 562; [7]) [µM] | IC50 (Detroit 562; [8]) [µM] | IC50 (Hep-2; [9]) [µM] | IC50 (Hep-2; [10]) [µM] | IC50 (Hep-2; [11]) [µM] | Solubility in the buffered environment [2] | Cytotoxicity in THP1-Blue NF-κB cells (MTT) (THP1-Blue NF-κB cells) | Reduction of LPS-induced NF-κB activation ([1]; 15 μM) |
| --- | --- | --- | --- | --- | --- | --- | --- | --- | --- | --- | --- | --- | --- |
| Cc1ccc(C(C)C)cc1.Cc1ccc(C(C)C)cc1.O=C1C(=Cc2ccnc3ccccc23)COCC1=Cc1ccnc2ccccc12.[Cl][Ru][Cl].[Cl][Ru][Cl] [Complex 3] | approximately 80% | 4.7 | 2.85 ± 0.01 | 2.8 ± 0.01 | 12.3 ± 1.83 | 3.9 ± 0.13 | 3.5 ± 0.11 | 12.7 | 11.1 ± 0.32 | 5.15 ± 0.07 | sufficient solubility | Neither complex 3, complex 4, nor curcumin exhibited significant cytotoxicity |  |
| Cc1ccc(C(C)C)cc1.Cc1ccc(C(C)C)cc1.O=C1C(=Cc2cccnc2)CCC1=Cc1cccnc1.[Cl][Ru][Cl].[Cl][Ru][Cl] [Complex 4] |  | 14.3 | 16.6 ± 0.71 | 3.65 ± 0.4 | 21.7 ± 2.45 | 42.2 ± 0.62 | 18.1 ± 2.63 | 88 ± 4.03 | 21.2 ± 0.02 | 37.65 ± 0.36 | sufficient solubility | Neither complex 3, complex 4, nor curcumin exhibited significant cytotoxicity | about 70% |
